What all share (assay): NCI tumour cell line growth inhibition, 48 h
Experiment [1] has as its system IGROV-1.
The subject of experiment [2] is UO-31.
For experiment [3], the system named is RXF 393.
Experiment [4] deals with TK-10.
Experiment [5] deals with SK-MEL-5.
The subject of experiment [6] is SF-295.
The test system of experiment [7] is HCT-116.
In experiment [8] the test system is SNB-19.
Experiment [9] deals with SK-MEL-2.
In experiment [10] the test system is EKVX.
The test system of experiment [11] is SR.
For experiment [12], the system named is MCF7.
The test system of experiment [13] is OVCAR-4.
The test system of experiment [14] is MDA-MB-435.
Experiment [15] relates to NCI-H522.
The subject of experiment [16] is ACHN.
The test system of experiment [17] is U-251.
Experiment [18] deals with 786-0.
The subject of experiment [19] is UACC-62.
For experiment [20], the system named is NCI-H460.

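The compound was tested at five concentrations on cells cultured in 96-well plates, with a 48-hour exposure period. GI50: concentration for 50% inhibition of growth.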 The source made the active and inactive calls. Rule as the data show it: active = GI50 up to about 1.1 µM and inactive = higher.

In the case of `O=C1c2cc([N+](=O)[O-])ccc2-c2ccc3c4ccc5c6c(ccc(c7ccc1c2c73)c64)C(=O)c1cc([N+](=O)[O-])ccc1-5`, the GI50 in [1], in experiment [2], in experiment [3], in [4], in [5] and in experiment [6] was > 100 µM (inactive) each time. Moreover, the GI50 in experiment [7], in experiment [8], in [9], in experiment [10], in experiment [11] and in experiment [12] was > 100 µM (inactive) each time. Also, the GI50 in experiment [13], in experiment [14], in experiment [15], in experiment [16], in experiment [17] and in experiment [18] was > 100 µM (inactive) in each case. Besides, in [19], the GI50 was > 100 µM (inactive).
For the molecule `O=C(C=P(c1ccccc1)(c1ccccc1)c1ccccc1)c1ccccc1-c1ccccc1C(=O)C=P(c1ccccc1)(c1ccccc1)c1ccccc1`, the GI50 was 0.0248 µM (active) in [20]; < 0.015 µM (active) in experiment [1]; 0.228 µM (active) in experiment [2]; 0.0208 µM (active) in experiment [3]; < 0.01 µM (active) in [4]; 0.0111 µM (active) in experiment [5]. The GI50 is 0.0269 µM (active) in experiment [6]; 0.0222 µM (active) in experiment [7]; 0.0288 µM (active) in experiment [8]; 0.0212 µM (active) in experiment [9]; 0.185 µM (active) in experiment [10]; 0.0143 µM (active) in [11]. The GI50 in experiment [12] is < 0.01 µM (active); in [13], 0.029 µM (active); in experiment [14] it was 0.0267 µM (active); in experiment [15], 0.014 µM (active); in experiment [16], 0.0272 µM (active); in experiment [17], 0.0173 µM (active). Besides, the values for the GI50 in [18] and in experiment [19] were 0.0344 µM (active) and < 0.0163 µM (active), respectively.
In the case of `CCOC(=O)c1c(OCC)[nH]c(=O)c(C(c2ccc(F)cc2)c2c(O)c(C(=O)OCC)c(OCC)[nH]c2=O)c1O`, the GI50 in experiment [20] was 16.4 µM (inactive); in [1], 14.9 µM (inactive); in experiment [2] it was 12.8 µM (inactive); in [3], 4.28 µM (inactive); in experiment [4], 25.2 µM (inactive); in experiment [5], 12.8 µM (inactive). The GI50 in experiment [6] is 17.7 µM (inactive); in experiment [7], 25.7 µM (inactive); in experiment [8], 17.1 µM (inactive); in experiment [9], 16.6 µM (inactive); in experiment [10] it was 7.06 µM (inactive); in [11], 10.5 µM (inactive). Besides, the GI50 is 20.4 µM (inactive) in [12]; 14.6 µM (inactive) in [13]; 17.6 µM (inactive) in experiment [14]; 18.6 µM (inactive) in [15]; 16.3 µM (inactive) in experiment [16]; 15.2 µM (inactive) in experiment [17]. For the same molecule, the figures for the GI50 in [18] and in experiment [19] were 16.4 µM (inactive) and 15.6 µM (inactive), respectively.
For `O=C1c2cccc3cc([N+](=O)[O-])cc(c23)C(=O)N1c1ccc(OCCN2CCCC2)cc1`, the GI50 is 3.26 µM (inactive) in [20]; 12.3 µM (inactive) in experiment [1]; 13.6 µM (inactive) in experiment [2]; 17.9 µM (inactive) in experiment [3]; 22.4 µM (inactive) in experiment [4]; 13.9 µM (inactive) in experiment [5]. For the same molecule, the GI50 in [6] is 20.8 µM (inactive); in experiment [7], 6.79 µM (inactive); in [8], 26.1 µM (inactive); in experiment [9] it was 24.5 µM (inactive); in [10] it was 21.6 µM (inactive); in experiment [11] it was 2.23 µM (inactive). The GI50 in experiment [12] is 7.94 µM (inactive); in [13], 28.1 µM (inactive); in [14] it was 19.4 µM (inactive); in [15] it was 10.8 µM (inactive); in experiment [16], 10 µM (inactive); in experiment [17] it was 16.1 µM (inactive). Besides, the GI50 in experiment [18] is 10.6 µM (inactive).
As for `O=S(=O)(/C=C/C=C/[S+]([O-])c1ccccc1)c1ccccc1` (stereo unspecified), the GI50 in experiment [20] is > 10 µM (inactive); in experiment [1] it was > 5.41 µM (inactive); in experiment [2], 2.27 µM (inactive); in [3], 1.58 µM (inactive); in experiment [4], 2.09 µM (inactive); in experiment [5], 1.03 µM (active). The GI50 was > 10 µM (inactive) in experiment [6]; 1.38 µM (inactive) in experiment [7]; > 10 µM (inactive) in [8]; 2.01 µM (inactive) in [9]; > 10 µM (inactive) in [10]; 0.877 µM (active) in experiment [11]. Also, the GI50 in [12] is 0.887 µM (active); in experiment [13], 1.59 µM (inactive); in [14], 2.07 µM (inactive); in experiment [15] it was 1.59 µM (inactive); in experiment [16], 2.34 µM (inactive); in experiment [17] it was > 10 µM (inactive). The results for the GI50 in [18] and in experiment [19] were 0.625 µM (active) and 1.44 µM (inactive), respectively.
As to `Cc1cc2ccccc2oc(=O)/c1=N\Nc1ccccc1`, the GI50 in [20] was 70 µM (inactive); in experiment [1], 25.8 µM (inactive); in [2], 24.9 µM (inactive); in experiment [3], 35.2 µM (inactive); in experiment [5], 84.1 µM (inactive); in [6], 32.6 µM (inactive). Also, the GI50 in experiment [7] is 41.9 µM (inactive); in experiment [8] it was 36.2 µM (inactive); in experiment [9], > 100 µM (inactive); in experiment [10], 37.2 µM (inactive); in experiment [11], > 100 µM (inactive); in [12], 83.2 µM (inactive). Also, the GI50 in experiment [13] is 48.1 µM (inactive); in experiment [14] it was > 100 µM (inactive); in experiment [15], 65.5 µM (inactive); in experiment [16] it was 22.6 µM (inactive); in [17], 39.9 µM (inactive); in experiment [18], 25.6 µM (inactive). Moreover, the GI50 in [19] is 19.2 µM (inactive).
Consider `COc1ccc(/C=C(/c2ccccc2)c2c(C)cc(C)c(/C(=C\c3ccc(OC)cc3)c3ccccc3)c2/N=N/c2cc(C)cc(C)c2)cc1`, for which the GI50 was 15.5 µM (inactive) in [20]; 14.4 µM (inactive) in experiment [1]; > 67.5 µM (inactive) in experiment [2]; 32.3 µM (inactive) in experiment [3]; 21.9 µM (inactive) in experiment [4]; 17.6 µM (inactive) in experiment [5]. The GI50 in experiment [6] was 24.7 µM (inactive); in experiment [7], 10 µM (inactive); in [8], 15.5 µM (inactive); in [9], 7.74 µM (inactive); in [10], 30 µM (inactive); in experiment [11] it was 63.5 µM (inactive). In addition, the GI50 is 9.91 µM (inactive) in experiment [12]; 20.1 µM (inactive) in experiment [13]; 14.6 µM (inactive) in [14]; 15 µM (inactive) in experiment [15]; > 56.5 µM (inactive) in experiment [16]; 7.33 µM (inactive) in experiment [17]. In addition, the GI50 in experiment [18] is 13.7 µM (inactive); in experiment [19], 45.6 µM (inactive).
With `COc1ccc(/C=C2\CCC(CNc3cc(C)on3)C2=O)cc1` (stereo unspecified), the GI50 in [20] was > 78.5 µM (inactive); in [1], 98.2 µM (inactive); in [2], > 93.1 µM (inactive); in [3], > 21.5 µM (inactive); in experiment [4], > 84.9 µM (inactive); in [5] it was > 100 µM (inactive). For the same molecule, the GI50 is 74.6 µM (inactive) in experiment [6]; > 100 µM (inactive) in experiment [7]; 64.4 µM (inactive) in experiment [8]; > 79.3 µM (inactive) in [9]; > 100 µM (inactive) in [10]; > 100 µM (inactive) in [11]. For the same molecule, the GI50 in experiment [12] was > 100 µM (inactive); in [13] it was > 100 µM (inactive); in experiment [14] it was > 100 µM (inactive); in experiment [15], 79.8 µM (inactive); in experiment [16], > 100 µM (inactive); in [17] it was > 60.1 µM (inactive). In addition, the GI50 in experiment [18] and in experiment [19] was > 100 µM (inactive) each time.
For the molecule `CCC(C)(C)C1CCC2c3c([nH]c4ccccc34)C3C(=O)N(c4ccc(OC)cc4)C(=O)C3C2C1` (stereo unspecified), the GI50 was 7.4 µM (inactive) in experiment [20]; 15.7 µM (inactive) in [1]; 24.4 µM (inactive) in [2]; 20.4 µM (inactive) in [3]; 16.7 µM (inactive) in [4]; 20.8 µM (inactive) in experiment [6]. For the same molecule, the GI50 was 9.08 µM (inactive) in experiment [7]; 25.6 µM (inactive) in experiment [8]; 16.7 µM (inactive) in experiment [9]; 35.4 µM (inactive) in experiment [10]; 39.8 µM (inactive) in experiment [11]; 3.94 µM (inactive) in [12]. The GI50 was 16.7 µM (inactive) in experiment [13]; 11 µM (inactive) in experiment [14]; 7.16 µM (inactive) in [15]; 11.2 µM (inactive) in experiment [16]; 11.5 µM (inactive) in experiment [17]; 10.6 µM (inactive) in experiment [18]. Besides, the GI50 in [19] was 54.7 µM (inactive).
For the molecule `CC(=O)OC1CC[C@@]2(C)C(CC[C@]3(C)C2CC=C2[C@@H]4C(C)[C@H](C)CCC4(C)CCC23C)[C@@]1(C)C(=O)O` (stereo partly specified), the GI50 in experiment [20] is 23.5 µM (inactive); in [1], 20.6 µM (inactive); in [2], 20.7 µM (inactive); in experiment [3], 21.7 µM (inactive); in experiment [4], 18.6 µM (inactive); in experiment [5], 17.4 µM (inactive). Moreover, the GI50 is 17.6 µM (inactive) in experiment [6]; 16.4 µM (inactive) in experiment [7]; 22.9 µM (inactive) in experiment [8]; 21.3 µM (inactive) in experiment [9]; 18 µM (inactive) in [10]; 27.9 µM (inactive) in experiment [11]. Also, the GI50 is 16 µM (inactive) in experiment [12]; 26 µM (inactive) in [13]; 19.8 µM (inactive) in experiment [14]; 19.2 µM (inactive) in experiment [15]; 18.2 µM (inactive) in experiment [16]; 22 µM (inactive) in [17]. The values for the GI50 in [18] and in experiment [19] were 23.2 µM (inactive) and 17 µM (inactive), respectively.

For the origin of these results see ChEMBL document CHEMBL1201862, “PubChem BioAssay data set” (2004).
